Source: patent US12455279B2, “Personalized immunotherapy for rejuvenating activating and strengthening exhausted and dysfunctional T cells, reducing PD-1, and improving immune function” (priority 2018, dated 2025)
Several values for one entry are separate records, joined by “and”; a condition that tells them apart may be missing. Identical values can stand only once.

Key:
Type in all cases: cell-based
[1] = test system: PD-1 expressing CD3+ normal human T cells; test: PD-1 surface expression on CD3+ T cells of healthy donors after treatment (1, 18, 24 Hr); settings: for % reduction in % of T cells expressing PD-1: vs untreated; for effect on PD-1 expressing T cells: incubated for 24 hours
Experimental: (§1) Peripheral blood lymphocytes (PBLs) were separated from normal human leukocytes of healthy donors by Ficol separation and CD3 positive T cells were separated by anti-CD3 antibody-coupled magnetic beads. The CD3+ T cells were cultured in RPMI 1640 medium supplemented with 10% heat inactivated fetal calf serum (FCS), 1% L-Glutamine, 1% sodium pyruvate, 1% non-essential amino acids, and 1% antibiotics. The cells were usually maintained for, for on average 24 hours after their separation before various molecules were added and their effects on the T cells were measured. […] It was therefore tested if neurotransmitters, neuropeptides, and/or modulators of voltage-gated ion channels can reduce PD-1 on the cell surface of T cells. Such a reduction would allow the T cells to escape the tumor-induced T cell suppression, and the activated T cells could then attach the cancer cells. As such, the expression of PD-1 on the surface of these treated and untreated T cells was monitored. […] Shorter in vitro incubation times are frequently preferable when cells are going to subsequently be returned to a subject, as they end to decrease the risk of an adverse reaction.

[2] = test system: PD-1 expressing large proliferating CD3+ normal human T cells; test: PD-1 expression on large proliferating T cells (FSC/SSC gating), 1 Hr treatment; settings: for % reduction in % of large T cells expressing PD-1: vs untreated
Experimental: as §1
(§2) CD3 positive T cells of patients are a heterogenous mix of different types of T cells. […] Using this FCS and SSC analysis, T cells can be distinguished and separated by size into large proliferating T cells and smaller non-proliferating T cells.

[3] = test system: PD-1 expressing smaller non-proliferating CD3+ normal human T cells; test: PD-1 expression on smaller non-proliferating T cells (FSC/SSC gating), 1 Hr treatment; settings: for % reduction in % of smaller T cells expressing PD-1: vs untreated
Experimental: as §1, §2

| Compound | % of T cells expressing PD-1 ([1]; 1 Hr treatment, 10^−8M) | % reduction in % of T cells expressing PD-1 ([1]; 1 Hr treatment, 10^−8M) | % of T cells expressing PD-1 ([1]; 24 Hr treatment, 10^−7M) | % reduction in % of T cells expressing PD-1 ([1]; 24 Hr treatment, 10^−7M) | % of T cells expressing PD-1 ([1]; 24 Hr treatment, 10^−8M) | % reduction in % of T cells expressing PD-1 ([1]; 24 Hr treatment, 10^−8M) | % of T cells expressing PD-1 ([1]; 18 Hr treatment, 10^−7M) | % reduction in % of T cells expressing PD-1 ([1]; 18 Hr treatment, 10^−7M) | other results |
| --- | --- | --- | --- | --- | --- | --- | --- | --- | --- |
| CCCN(CCC)C1CCc2ccc(O)cc2C1 (centres unmarked) [7-OH-DPAT] | 21.65% | 42% | 5.12% | 75.85% | 13.6% | 35.85% | – | – | – |
| NC[C@@H]1O[C@H](C23CC4CC(CC(C4)C2)C3)Cc2c1ccc(O)c2O [A77636] | 27.25% | 25% | 12.7% | 37.84% | 14.7% | 28.05% | 27.10% | 21.90% | % of large T cells expressing PD-1 ([2]; 10^−8M): 20.5%; % reduction in % of large T cells expressing PD-1 ([2]; 10^−8M): 4.7%; % of smaller T cells expressing PD-1 ([3]; 10−8M): 40.8%; % reduction in % of smaller T cells expressing PD-1 ([3]; 10−8M): 7.1% |
| Cc1cccc(NC(=O)CN2CCC(c3ccccn3)CC2)c1 [A412997] | 17.4% | 52% | – | – | – | – | – | – | – |
| Cc1onc(O)c1CC(N)C(=O)O (centres unmarked) [AMPA, alph-amino-3-hydroxy-5-methyl-4-isoxazalepropinoic acid] | 26.4% | 28% | – | – | – | – | 28.55% | 17.72% | – |
| N#Cc1cc2[nH]c(=O)c(=O)[nH]c2cc1[N+](=O)[O-] [CNQX] | – | – | – | – | – | – | – | – | % of T cells expressing PD-1 ([1]; 24 Hr treatment, 0.5*10^-6M): 13.7%; % reduction in % of T cells expressing PD-1 ([1]; 24 Hr treatment, 0.5*10^-6M): 32.93%; % of T cells expressing PD-1 ([1]; 24 Hr treatment, 0.5*10^−5M): 12.9%; % reduction in % of T cells expressing PD-1 ([1]; 24 Hr treatment, 0.5*10^−5M): 36.84% |
| Oc1ccc(C2CNCCc3c2cc(O)c(O)c3Cl)cc1 (centres unmarked) [Fenoldopam (powder), Fenoldopam] | – | – | 21.3% | −4.26% | 14.7% | 28.05% | 25.75% | 25.79% | effect on PD-1 expressing T cells [1]: did not have a positive effect |
| Oc1ccc(C2CNCCc3c2cc(O)c(O)c3Cl)cc1 (centres unmarked) [Fenoldopam - Corlopam, Fenoldopam] | – | – | – | – | – | – | 27.87% | 19.74% | – |
| OC1(c2ccc(Cl)cc2)CCN(Cc2c[nH]c3ccccc23)CC1 [L-741,626] | – | – | – | – | – | – | – | – | % of large T cells expressing PD-1 ([2]; concentration not given): 19.0%; % reduction in % of large T cells expressing PD-1 ([2]; concentration not given): 11.6%; % of smaller T cells expressing PD-1 ([3]; concentration not given): 38.6%; % reduction in % of smaller T cells expressing PD-1 ([3]; concentration not given): 12.1% |
| Cc1c(C2CCN(CCc3ccccc3)CC2)noc1-c1ccc(Cl)cc1 [L-741,742] | – | – | – | – | – | – | – | – | % of large T cells expressing PD-1 ([2]; concentration not given): 19.3%; % reduction in % of large T cells expressing PD-1 ([2]; concentration not given): 10.2%; % of smaller T cells expressing PD-1 ([3]; concentration not given): 37.8%; % reduction in % of smaller T cells expressing PD-1 ([3]; concentration not given): 13.9% |
| O=C(NCCCCN1CCN(c2cccc(Cl)c2Cl)CC1)c1ccc2c(c1)Cc1ccccc1-2 [NGB 2904] | – | – | – | – | – | – | – | – | % of large T cells expressing PD-1 ([2]; concentration not given): 22.5%; % reduction in % of large T cells expressing PD-1 ([2]; concentration not given): −4.7%; % of smaller T cells expressing PD-1 ([3]; concentration not given): 40.2%; % reduction in % of smaller T cells expressing PD-1 ([3]; concentration not given): 8.4% |
| CN[C@H](CC(=O)O)C(=O)O [NMDA, N-methyl-D-aspartic acid] | 30.35% | 17% | – | – | – | – | 24.75% | 28.67% | – |
| Cc1cccc(C(=O)NCN2CCN(c3ccccc3C#N)CC2)c1 [PD168077] | 15.1% | 59% | 5.3% | 74.05% | – | – | 24% | 30.84% | reduction of PD-1 surface expression level and of number of PD-1 expressing T cells ([1]; 1, 18 or 24 hours treatment): greatest reduction in mean percentage of PD-1 expressing T cells after 24 hours of treatment; % of large T cells expressing PD-1 ([2]; 10^−8M): 15.6%; % reduction in % of large T cells expressing PD-1 ([2]; 10^−8M): 27.4%; % of smaller T cells expressing PD-1 ([3]; 10−8M): 40.3%; % reduction in % of smaller T cells expressing PD-1 ([3]; 10−8M): 8.2% |
| CCCN1CCO[C@@H]2c3cc(O)ccc3OC[C@H]21 [PD 128907] | 26.15% | 29% | 13.6% | 33.41% | 16.3% and 10.7% | 47.61% | 27.25% | 21.47% | % of large T cells expressing PD-1 ([2]; 10^−8M): 16.1%; % reduction in % of large T cells expressing PD-1 ([2]; 10^−8M): 25.1%; % of smaller T cells expressing PD-1 ([3]; 10−8M): 38.4%; % reduction in % of smaller T cells expressing PD-1 ([3]; 10−8M): 12.5% |
| CN1CCc2cc(Cl)c(O)cc2[C@H]2c3ccccc3CC[C@@H]21 [SCH 39166] | – | – | – | – | – | – | – | – | % of large T cells expressing PD-1 ([2]; concentration not given): 19.8%; % reduction in % of large T cells expressing PD-1 ([2]; concentration not given): 7.9%; % of smaller T cells expressing PD-1 ([3]; concentration not given): 40.1%; % reduction in % of smaller T cells expressing PD-1 ([3]; concentration not given): 8.7% |
| Oc1cc2c(cc1O)C(c1ccccc1)CNCC2 (centres unmarked) [SKF38393] | 26.2% | 28% | 21.8% | -6.73% | 20.3% | 0.61% | 26.40% | 23.90% | effect on PD-1 expressing T cells [1]: did not have a positive effect; % of large T cells expressing PD-1 ([2]; 10^−8M): 15.6%; % reduction in % of large T cells expressing PD-1 ([2]; 10^−8M): 27.4%; % of smaller T cells expressing PD-1 ([3]; 10−8M): 36.7%; % reduction in % of smaller T cells expressing PD-1 ([3]; 10−8M): 16.4% |
| Dendrotoxin K | 34.6% | 25% | 16.2% | 20.69% | 16.2% | 20.69% | 23.30% | 32.85% | – |
